Experimental data as given in patent publication US12227500B2, “Substituted pyrrolo[2,3-b]pyridines for suppressing toxic endoplasmic reticulum stress” (THE TRUSTEES OF COLUMBIA UNIVERSITY IN THE CITY OF NEW YORK, priority 2018, dated 2025).

What was measured:
Assay in all cases: Radiolabeled ATP kinase assay, panel of 371 kinases (Table S6)
Type in all cases: biochemical
[1] = biological target: T1, panel of 371 human kinases (Homo sapiens, UniProt P00533); conditions: EGFR; 0.1 μM; 10 μM ATP; read-out: % Enzyme Activity (relative to DMSO controls)
T1 construct: purchased Reaction Biology Corp
From the text: (§1) ; FIG. 38C). […]. Further targeted analyses, such as genetic knock-down or knock-out, may be warranted to parse the role of these additional kinases in our model of neurodegeneration.

[2] = biological target: T2, panel of 371 human kinases (Homo sapiens, UniProt Q15831); conditions: LKB1; 0.1 μM; 10 μM ATP; read-out: % Enzyme Activity (relative to DMSO controls)
T2 construct: purchased Reaction Biology Corp
From the text: as §1

[3] = biological target: T3, panel of 371 human kinases (Homo sapiens, UniProt O95835); conditions: LATS1; 0.1 μM; 10 μM ATP; read-out: % Enzyme Activity (relative to DMSO controls)
T3 construct: purchased Reaction Biology Corp
From the text: as §1

[4] = biological target: T4, panel of 371 human kinases (Homo sapiens, UniProt Q13237); conditions: PKG2/PRKG2; 0.1 μM; 10 μM ATP; read-out: % Enzyme Activity (relative to DMSO controls)
T4 construct: purchased Reaction Biology Corp
From the text: as §1

[5] = biological target: T5, panel of 371 human kinases (Homo sapiens, UniProt P57059); conditions: SIK1; 0.1 μM; 10 μM ATP; read-out: % Enzyme Activity (relative to DMSO controls)
T5 construct: purchased Reaction Biology Corp
From the text: as §1

[6] = biological target: T6, panel of 371 human kinases (Homo sapiens, UniProt Q6P3R8); conditions: NEK5; 0.1 μM; 10 μM ATP; read-out: % Enzyme Activity (relative to DMSO controls)
T6 construct: purchased Reaction Biology Corp
From the text: as §1

[7] = biological target: T7, panel of 371 human kinases (Homo sapiens, UniProt P54753); conditions: EPHB3; 0.1 μM; 10 μM ATP; read-out: % Enzyme Activity (relative to DMSO controls)
T7 construct: purchased Reaction Biology Corp
From the text: as §1

[8] = biological target: T8, panel of 371 human kinases (Homo sapiens, UniProt P20794); conditions: MAK; 0.1 μM; 10 μM ATP; read-out: % Enzyme Activity (relative to DMSO controls)
T8 construct: purchased Reaction Biology Corp
From the text: as §1

[9] = biological target: T9, panel of 371 human kinases (Homo sapiens, UniProt P32298); conditions: GRK4; 0.1 μM; 10 μM ATP; read-out: % Enzyme Activity (relative to DMSO controls)
T9 construct: purchased Reaction Biology Corp
From the text: as §1

[10] = biological target: T10, panel of 371 human kinases (Homo sapiens, UniProt Q9HBY8); conditions: SGK2; 0.1 μM; 10 μM ATP; read-out: % Enzyme Activity (relative to DMSO controls)
T10 construct: purchased Reaction Biology Corp
From the text: as §1

[11] = biological target: T11, panel of 371 human kinases (Homo sapiens, UniProt P53671); conditions: LIMK2; 0.1 μM; 10 μM ATP; read-out: % Enzyme Activity (relative to DMSO controls)
T11 construct: purchased Reaction Biology Corp
From the text: as §1

[12] = biological target: T12, panel of 371 human kinases (Homo sapiens, UniProt Q7KZI7); conditions: MARK2/PAR-1Ba; 0.1 μM; 10 μM ATP; read-out: % Enzyme Activity (relative to DMSO controls)
T12 construct: purchased Reaction Biology Corp
From the text: as §1

[13] = biological target: T13, panel of 371 human kinases (Homo sapiens, UniProt O14965); conditions: Aurora A; 0.1 μM; 10 μM ATP; read-out: % Enzyme Activity (relative to DMSO controls)
T13 construct: purchased Reaction Biology Corp
From the text: as §1

[14] = biological target: T14, panel of 371 human kinases (Homo sapiens, UniProt Q9HAZ1); conditions: CLK4; 0.1 μM; 10 μM ATP; read-out: % Enzyme Activity (relative to DMSO controls)
T14 construct: purchased Reaction Biology Corp
From the text: as §1

[15] = biological target: T15, panel of 371 human kinases (Homo sapiens, UniProt P07949); conditions: RET; 0.1 μM; 10 μM ATP; read-out: % Enzyme Activity (relative to DMSO controls)
T15 construct: purchased Reaction Biology Corp
From the text: as §1

[16] = biological target: T16, panel of 371 human kinases (Homo sapiens, UniProt Q04759); conditions: PKCtheta; 0.1 μM; 10 μM ATP; read-out: % Enzyme Activity (relative to DMSO controls)
T16 construct: purchased Reaction Biology Corp
From the text: as §1

[17] = biological target: T17, panel of 371 human kinases (Homo sapiens, UniProt Q13470); conditions: TNK1; 0.1 μM; 10 μM ATP; read-out: % Enzyme Activity (relative to DMSO controls)
T17 construct: purchased Reaction Biology Corp
From the text: as §1

[18] = biological target: T18, panel of 371 human kinases (Homo sapiens, UniProt P49137); conditions: MAPKAPK2; 0.1 μM; 10 μM ATP; read-out: % Enzyme Activity (relative to DMSO controls)
T18 construct: purchased Reaction Biology Corp
From the text: as §1

T1 sequence (P00533 25-1210): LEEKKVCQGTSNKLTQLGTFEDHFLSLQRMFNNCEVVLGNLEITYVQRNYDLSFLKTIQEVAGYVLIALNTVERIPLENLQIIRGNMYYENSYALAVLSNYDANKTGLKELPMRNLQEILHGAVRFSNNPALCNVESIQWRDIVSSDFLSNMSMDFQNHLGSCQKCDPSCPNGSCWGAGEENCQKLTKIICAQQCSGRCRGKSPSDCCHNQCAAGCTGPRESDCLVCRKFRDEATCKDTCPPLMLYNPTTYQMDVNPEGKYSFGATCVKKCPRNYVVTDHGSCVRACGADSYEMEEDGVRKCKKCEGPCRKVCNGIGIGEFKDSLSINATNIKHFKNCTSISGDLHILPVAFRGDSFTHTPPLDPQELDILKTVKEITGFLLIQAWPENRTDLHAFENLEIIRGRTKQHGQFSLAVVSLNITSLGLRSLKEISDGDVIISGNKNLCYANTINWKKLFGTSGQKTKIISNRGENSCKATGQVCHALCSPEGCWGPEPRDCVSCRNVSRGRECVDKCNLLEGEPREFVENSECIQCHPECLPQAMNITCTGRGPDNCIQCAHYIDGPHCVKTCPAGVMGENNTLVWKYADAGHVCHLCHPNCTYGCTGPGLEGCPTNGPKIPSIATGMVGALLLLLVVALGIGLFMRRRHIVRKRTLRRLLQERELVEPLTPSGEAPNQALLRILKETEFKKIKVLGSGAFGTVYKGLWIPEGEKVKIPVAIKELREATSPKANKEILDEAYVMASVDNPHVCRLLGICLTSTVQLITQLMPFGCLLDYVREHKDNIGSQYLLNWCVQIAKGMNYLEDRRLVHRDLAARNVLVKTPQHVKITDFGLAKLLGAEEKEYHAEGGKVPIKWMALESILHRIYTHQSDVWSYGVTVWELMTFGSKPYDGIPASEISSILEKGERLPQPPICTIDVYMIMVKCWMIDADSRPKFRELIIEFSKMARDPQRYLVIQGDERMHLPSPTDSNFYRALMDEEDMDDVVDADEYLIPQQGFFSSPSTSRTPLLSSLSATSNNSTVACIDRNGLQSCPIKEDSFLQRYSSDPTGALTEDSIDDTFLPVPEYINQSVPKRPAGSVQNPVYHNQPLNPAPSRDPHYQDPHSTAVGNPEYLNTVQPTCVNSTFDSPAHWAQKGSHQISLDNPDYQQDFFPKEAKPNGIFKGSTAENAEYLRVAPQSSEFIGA
T9 sequence (P32298 whole entry): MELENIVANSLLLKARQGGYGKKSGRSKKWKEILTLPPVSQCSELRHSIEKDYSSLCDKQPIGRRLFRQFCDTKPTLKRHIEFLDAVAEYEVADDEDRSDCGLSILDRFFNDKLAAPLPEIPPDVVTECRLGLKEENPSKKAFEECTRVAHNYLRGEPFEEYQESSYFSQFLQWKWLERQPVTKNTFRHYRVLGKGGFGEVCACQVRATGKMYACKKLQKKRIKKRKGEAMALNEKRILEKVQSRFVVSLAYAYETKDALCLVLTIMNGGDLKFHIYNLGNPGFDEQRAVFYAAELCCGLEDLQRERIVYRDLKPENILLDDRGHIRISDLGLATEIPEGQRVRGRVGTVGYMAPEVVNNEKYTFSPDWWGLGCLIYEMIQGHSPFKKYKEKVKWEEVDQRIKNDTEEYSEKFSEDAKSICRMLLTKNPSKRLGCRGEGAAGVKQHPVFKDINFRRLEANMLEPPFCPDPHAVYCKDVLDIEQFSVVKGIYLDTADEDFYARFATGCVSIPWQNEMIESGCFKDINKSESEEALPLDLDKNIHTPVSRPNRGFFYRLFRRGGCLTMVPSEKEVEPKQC
T18 sequence (P49137 whole entry): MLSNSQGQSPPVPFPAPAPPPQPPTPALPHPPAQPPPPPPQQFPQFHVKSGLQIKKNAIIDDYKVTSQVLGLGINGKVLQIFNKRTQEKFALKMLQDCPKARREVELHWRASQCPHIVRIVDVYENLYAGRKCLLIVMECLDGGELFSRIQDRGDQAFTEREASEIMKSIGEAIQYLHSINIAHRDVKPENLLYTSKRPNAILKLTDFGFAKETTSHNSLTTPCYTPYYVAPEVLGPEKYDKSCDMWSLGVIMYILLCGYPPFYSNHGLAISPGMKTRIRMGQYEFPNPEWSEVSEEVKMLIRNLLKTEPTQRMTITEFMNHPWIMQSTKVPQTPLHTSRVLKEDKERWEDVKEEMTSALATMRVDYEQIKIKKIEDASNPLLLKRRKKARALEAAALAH
T12 sequence (Q7KZI7 whole entry): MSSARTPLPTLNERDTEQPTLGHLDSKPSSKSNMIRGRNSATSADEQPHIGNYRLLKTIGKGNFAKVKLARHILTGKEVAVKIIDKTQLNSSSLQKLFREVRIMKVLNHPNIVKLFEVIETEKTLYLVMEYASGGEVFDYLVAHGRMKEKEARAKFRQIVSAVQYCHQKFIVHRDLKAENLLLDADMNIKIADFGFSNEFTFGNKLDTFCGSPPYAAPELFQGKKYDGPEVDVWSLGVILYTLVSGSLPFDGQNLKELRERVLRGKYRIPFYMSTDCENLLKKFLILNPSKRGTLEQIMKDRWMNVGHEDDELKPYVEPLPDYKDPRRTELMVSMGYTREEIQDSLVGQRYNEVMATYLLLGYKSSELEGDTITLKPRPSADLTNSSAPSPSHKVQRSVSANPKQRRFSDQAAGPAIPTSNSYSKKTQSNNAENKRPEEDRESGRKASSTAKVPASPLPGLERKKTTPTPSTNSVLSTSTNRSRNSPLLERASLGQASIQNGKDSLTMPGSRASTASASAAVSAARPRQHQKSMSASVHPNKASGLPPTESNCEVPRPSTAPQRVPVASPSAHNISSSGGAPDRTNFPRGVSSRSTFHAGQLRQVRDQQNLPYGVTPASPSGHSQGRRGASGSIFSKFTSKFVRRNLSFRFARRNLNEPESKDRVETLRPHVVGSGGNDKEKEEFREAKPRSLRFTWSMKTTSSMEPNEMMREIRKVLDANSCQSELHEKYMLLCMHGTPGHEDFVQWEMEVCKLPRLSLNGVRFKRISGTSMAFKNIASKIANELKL
T17 sequence (Q13470 whole entry): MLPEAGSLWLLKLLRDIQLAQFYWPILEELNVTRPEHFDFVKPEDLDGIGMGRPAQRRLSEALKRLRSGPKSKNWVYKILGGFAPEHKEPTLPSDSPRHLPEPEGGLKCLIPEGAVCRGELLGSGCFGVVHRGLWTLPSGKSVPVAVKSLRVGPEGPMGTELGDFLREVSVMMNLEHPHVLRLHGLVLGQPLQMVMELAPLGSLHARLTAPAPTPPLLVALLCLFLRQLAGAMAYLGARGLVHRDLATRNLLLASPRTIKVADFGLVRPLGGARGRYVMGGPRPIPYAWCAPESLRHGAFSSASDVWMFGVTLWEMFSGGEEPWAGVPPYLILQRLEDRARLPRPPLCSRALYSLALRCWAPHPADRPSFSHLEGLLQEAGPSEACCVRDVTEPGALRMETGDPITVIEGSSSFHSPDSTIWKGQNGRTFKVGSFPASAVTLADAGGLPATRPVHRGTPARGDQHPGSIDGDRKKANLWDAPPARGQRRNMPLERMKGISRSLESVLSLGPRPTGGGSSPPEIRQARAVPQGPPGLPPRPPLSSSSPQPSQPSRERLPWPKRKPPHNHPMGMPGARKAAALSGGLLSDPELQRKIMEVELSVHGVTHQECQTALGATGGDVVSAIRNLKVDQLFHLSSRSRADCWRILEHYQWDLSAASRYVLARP
T10 sequence (Q9HBY8 whole entry): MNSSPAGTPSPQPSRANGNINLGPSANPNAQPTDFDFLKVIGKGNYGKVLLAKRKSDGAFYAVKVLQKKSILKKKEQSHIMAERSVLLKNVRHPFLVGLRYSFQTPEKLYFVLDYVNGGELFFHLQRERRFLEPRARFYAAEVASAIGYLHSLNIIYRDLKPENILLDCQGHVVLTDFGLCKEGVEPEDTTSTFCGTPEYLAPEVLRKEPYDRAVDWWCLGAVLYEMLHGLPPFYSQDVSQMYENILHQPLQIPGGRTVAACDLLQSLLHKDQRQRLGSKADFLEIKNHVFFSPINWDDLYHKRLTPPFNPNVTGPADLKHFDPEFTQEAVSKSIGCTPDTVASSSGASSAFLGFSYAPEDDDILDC
T14 sequence (Q9HAZ1 whole entry): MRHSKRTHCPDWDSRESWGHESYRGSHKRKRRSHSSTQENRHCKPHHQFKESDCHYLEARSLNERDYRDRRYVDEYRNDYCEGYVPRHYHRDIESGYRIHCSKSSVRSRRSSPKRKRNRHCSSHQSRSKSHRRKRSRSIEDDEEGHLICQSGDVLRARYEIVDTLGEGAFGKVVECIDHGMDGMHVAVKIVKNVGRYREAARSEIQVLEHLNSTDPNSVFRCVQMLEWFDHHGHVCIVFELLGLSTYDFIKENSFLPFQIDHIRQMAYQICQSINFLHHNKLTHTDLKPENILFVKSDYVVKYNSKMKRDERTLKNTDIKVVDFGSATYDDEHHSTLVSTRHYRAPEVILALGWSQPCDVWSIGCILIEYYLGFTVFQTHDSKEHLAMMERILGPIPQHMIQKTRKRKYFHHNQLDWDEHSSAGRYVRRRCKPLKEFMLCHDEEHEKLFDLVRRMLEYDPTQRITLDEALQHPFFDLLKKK
T2 sequence (Q15831 whole entry): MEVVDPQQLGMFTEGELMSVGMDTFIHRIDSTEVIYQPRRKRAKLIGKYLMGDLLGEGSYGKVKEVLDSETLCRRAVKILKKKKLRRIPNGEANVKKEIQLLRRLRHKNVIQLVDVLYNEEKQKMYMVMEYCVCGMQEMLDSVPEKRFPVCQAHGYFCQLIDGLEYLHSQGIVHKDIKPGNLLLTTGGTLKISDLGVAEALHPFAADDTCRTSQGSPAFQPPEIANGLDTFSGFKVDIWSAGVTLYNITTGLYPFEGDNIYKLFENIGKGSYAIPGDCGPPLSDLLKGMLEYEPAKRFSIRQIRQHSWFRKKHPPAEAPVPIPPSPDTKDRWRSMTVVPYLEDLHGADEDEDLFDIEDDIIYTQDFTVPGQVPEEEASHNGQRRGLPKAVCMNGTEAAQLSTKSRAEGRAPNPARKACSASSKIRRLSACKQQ

Row | Compound | remaining activity at 0.1 µM [1] [%] | remaining activity at 0.1 µM [2] [%] | remaining activity at 0.1 µM [3] [%] | remaining activity at 0.1 µM [4] [%] | remaining activity at 0.1 µM [5] [%] | remaining activity at 0.1 µM [6] [%] | remaining activity at 0.1 µM [7] [%] | remaining activity at 0.1 µM [8] [%] | remaining activity at 0.1 µM [9] [%] | remaining activity at 0.1 µM [10] [%] | remaining activity at 0.1 µM [11] [%] | remaining activity at 0.1 µM [12] [%] | remaining activity at 0.1 µM [13] [%] | remaining activity at 0.1 µM [14] [%] | remaining activity at 0.1 µM [15] [%] | remaining activity at 0.1 µM [16] [%] | remaining activity at 0.1 µM [17] [%] | remaining activity at 0.1 µM [18] [%]
1 | CN1CCN(Cc2ccc(-c3cnc4[nH]cc(-c5ccc6[nH]ccc6c5)c4c3)cc2)CC1 [Compound 1, 3-(1H-Indol-5-yl)-5-(4-((4-methylpiperazin-1-yl)methyl)phenyl)-1H-pyrrolo[2,3-b]pyridine, reference compound] | 103 | 101 | 83.6 | 93.8 | 102 | 87.1 | 107 | 101 | 106 | 92.8 | 103 | 78 | 95.2 | 94.5 | 76.7 | 90.8 | 97 | 96.9
2 | OCCN1CCN(Cc2ccc(-c3cnc4[nH]cc(-c5cccc(Cl)c5)c4c3)cc2)CC1 [Compound 12k, 2-(4-(4-(3-(3-Chlorophenyl)-1H-pyrrolo[2,3-b]pyridin-5-yl)benzyl)piperazin-1-yl)ethan-1-ol] | 96.2 | 78.7 | 84.4 | 88.7 | 106 | 92.4 | 101 | 87.5 | 106 | 96.7 | 101 | 51.7 | 104 | 71.9 | 91.5 | 94.6 | 95.6 | 99.6
